Source: ChEMBL document CHEMBL4480396 (Eur J Med Chem, 2019)
One block for each compound: values may come before it. Calls of active or inactive are those of the source. No cut-off for these calls is given here.

What was measured:
MGC-803 [1] = assay: Induction of apoptosis in human MGC803 cells assessed as viable cells at 30 nM after 48 hrs by Annexin V-FITC/propidium iodide staining based flow cytometry (reference value: 94.9%); format: functional; settings: MGC-803, 48 h, read-out: Activity
MGC-803 [2] = assay: Induction of apoptosis in human MGC803 cells assessed as early apoptotic cells at 60 nM after 48 hrs by Annexin V-FITC/propidium iodide staining based flow cytometry (reference value: 1.9%); format: functional
MGC-803 [3] = assay: Cell cycle arrest in human MGC803 cells assessed as accumulation at G2/M-phase at 90 nM measured after 48 hrs by propidium iodide staining based flow cytometry relative to control; format: functional
MGC-803 [4] = assay: Cell cycle arrest in human MGC803 cells assessed as accumulation at G2/M-phase measured after 48 hrs by propidium iodide staining based flow cytometry; format: functional
MGC-803 [5] = assay: Induction of apoptosis in human MGC803 cells assessed as necrotic cells at 60 nM after 48 hrs by Annexin V-FITC/propidium iodide staining based flow cytometry (reference value: 0.3%); format: functional
MGC-803 [6] = assay: Antiproliferative activity against human MGC803 cells assessed as cell viability at 90 nM measured after 7 days by crystal violet staining based assay relative to control; format: functional; settings: MGC-803, 168 h, read-out: Activity
MGC-803 [7] = assay: Induction of apoptosis in human MGC803 cells assessed as down regulation of XIAP expression after 48 hrs by Western blot analysis; format: functional, cell-based
MGC-803 [8] = assay: Up regulation of CDC25C expression in human MGC803 cells at 30 to 90 nM by Western blot analysis; format: functional, cell-based
Tubulin = assay: Inhibition of tubulin (unknown origin) polymerization measured every minute by spectrophotometric method; format: protein-complex assay, Homo sapiens
MGC-803 [9] = assay: Induction of apoptosis in human MGC803 cells assessed as down regulation of Bcl-xl expression after 48 hrs by Western blot analysis; format: functional, cell-based
[10] = target: Tubulin beta (Homo sapiens) (UniProt P68371+Q9H4B7+Q13509+P04350+Q3ZCM7+P07437+Q13885+Q9BVA1+Q9BUF5+A6NNZ2); assay: Inhibition of EBI binding to beta-tubulin colchicine binding site in human MGC803 cells at 0.4 to 4 uM preincubated for 2 hrs followed by EBI addition and measured after 2 hrs by Western blot analysis; format: cell-based
MGC-803 [11] = assay: Induction of apoptosis in human MGC803 cells assessed as late apoptotic cells at 60 nM after 48 hrs by Annexin V-FITC/propidium iodide staining based flow cytometry (reference value: 2.9%); format: functional
MGC-803 [12] = assay: Induction of apoptosis in human MGC803 cells assessed as early apoptotic cells at 30 nM after 48 hrs by Annexin V-FITC/propidium iodide staining based flow cytometry (reference value: 1.9%); format: functional
HepG2 = assay: Antiproliferative activity against human HepG2 cells measured after 48 hrs by MTT assay; format: functional, cell-based; settings: HepG2, 48 h
[13] = target: T1, Cyclin-dependent kinase 1/cyclin B1 (Homo sapiens) (UniProt P06493+P14635); assay: Effect on CDK1-cyclin B1 protein-protein interaction in human MGC803 cells assessed as change in CDK1 expression at 30 to 90 nM measured after 48 hrs by immunoprecipitation based Western blot analysis; format: cell-based
T1 sequence (P06493 whole entry, looked up): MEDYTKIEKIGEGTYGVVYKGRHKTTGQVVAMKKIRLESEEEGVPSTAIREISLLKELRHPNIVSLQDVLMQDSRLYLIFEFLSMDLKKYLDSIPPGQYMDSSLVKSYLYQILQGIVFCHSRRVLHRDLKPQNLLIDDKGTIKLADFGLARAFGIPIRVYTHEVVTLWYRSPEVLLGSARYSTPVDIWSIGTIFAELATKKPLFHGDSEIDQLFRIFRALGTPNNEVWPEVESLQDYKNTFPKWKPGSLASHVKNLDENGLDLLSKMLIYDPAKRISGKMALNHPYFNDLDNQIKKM
T1 sequence (P14635 whole entry, looked up): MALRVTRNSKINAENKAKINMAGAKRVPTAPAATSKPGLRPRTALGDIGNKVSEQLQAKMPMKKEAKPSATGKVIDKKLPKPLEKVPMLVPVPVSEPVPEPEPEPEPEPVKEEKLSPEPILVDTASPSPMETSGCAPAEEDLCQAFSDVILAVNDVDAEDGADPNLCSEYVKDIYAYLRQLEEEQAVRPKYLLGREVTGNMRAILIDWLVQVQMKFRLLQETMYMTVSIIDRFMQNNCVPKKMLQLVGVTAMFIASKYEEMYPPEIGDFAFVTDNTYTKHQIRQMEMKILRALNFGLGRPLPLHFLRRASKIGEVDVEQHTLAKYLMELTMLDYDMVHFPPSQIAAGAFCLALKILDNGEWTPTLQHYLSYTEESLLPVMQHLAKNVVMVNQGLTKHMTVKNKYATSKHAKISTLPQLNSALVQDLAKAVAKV

MGC-803 [14] = assay: Antiproliferative activity against human MGC803 cells assessed as cell viability at 60 nM measured after 7 days by crystal violet staining based assay relative to control; format: functional; settings: MGC-803, 168 h, read-out: Activity
[15] = target: T1, Cyclin-dependent kinase 1/cyclin B1 (Homo sapiens); assay: Effect on CDK1-cyclin B1 protein-protein interaction in human MGC803 cells assessed as change in cyclin B1 expression at 30 to 90 nM measured after 48 hrs by immunoprecipitation based Western blot analysis; format: cell-based
MGC-803 [16] = assay: Cell cycle arrest in human MGC803 cells assessed as decrease in accumulation at G1-phase at 30 to 90 nM measured after 48 hrs by propidium iodide staining based flow cytometry; format: functional
MGC-803 [17] = assay: Induction of apoptosis in human MGC803 cells assessed as late apoptotic cells at 30 nM after 48 hrs by Annexin V-FITC/propidium iodide staining based flow cytometry (reference value: 2.9%); format: functional
MGC-803 [18] = assay: Induction of apoptosis in human MGC803 cells assessed as up regulation of DR5 expression at 30 to 90 nM after 48 hrs by Western blot analysis; format: functional, cell-based
MGC-803 [19] = assay: Down regulation of CDK1 expression in human MGC803 cells by Western blot analysis; format: functional, cell-based
MGC-803 [20] = assay: Induction of apoptosis in human MGC803 cells assessed as viable cells at 60 nM after 48 hrs by Annexin V-FITC/propidium iodide staining based flow cytometry (reference value: 94.9%); format: functional; settings: MGC-803, 48 h, read-out: Activity
MGC-803 [21] = assay: Antiproliferative activity against human MGC803 cells measured after 48 hrs by MTT assay; format: functional, cell-based; settings: MGC-803, 48 h
MGC-803 [22] = assay: Antiproliferative activity against human MGC803 cells assessed as cell viability at 30 nM measured after 7 days by crystal violet staining based assay relative to control; format: functional; settings: MGC-803, 168 h, read-out: Activity
PC-3 = assay: Antiproliferative activity against human PC3 cells measured after 48 hrs by MTT assay; format: functional, cell-based; settings: PC-3, 48 h
MGC-803 [23] = assay: Down regulation of CDK1 expression in human MGC803 cells at 30 to 90 nM in presence of proteasome inhibitor MG132 by Western blot analysis; format: functional, cell-based
MGC-803 [24] = assay: Induction of apoptosis in human MGC803 cells assessed as late apoptotic cells at 90 nM after 48 hrs by Annexin V-FITC/propidium iodide staining based flow cytometry (reference value: 2.9%); format: functional
MGC-803 [25] = assay: Induction of apoptosis in human MGC803 cells assessed as necrotic cells at 30 nM after 48 hrs by Annexin V-FITC/propidium iodide staining based flow cytometry (reference value: 0.3%); format: functional
MGC-803 [26] = assay: Induction of apoptosis in human MGC803 cells assessed as early apoptotic cells at 90 nM after 48 hrs by Annexin V-FITC/propidium iodide staining based flow cytometry (reference value: 1.9%); format: functional
MGC-803 [27] = assay: Inhibition of colony formation in human MGC803 cells after 7 days by crystal violet staining based assay; format: functional, cell-based
MGC-803 [28] = assay: Antiproliferative activity against human MGC803 cells assessed as cell viability at 120 nM measured after 7 days by crystal violet staining based assay relative to control; format: functional; settings: MGC-803, 168 h, read-out: Activity
Tubulin (Homo sapiens) = Tubulin (Homo sapiens) (UniProt P68371+Q9H4B7+P0DPH7+P68366+Q13509+Q71U36+P04350+Q3ZCM7+P07437+P68363+Q9BQE3+Q6PEY2+Q13885+Q9BVA1+Q9BUF5); assay: Induction of microtubule depolymerization in human MGC803 cells at 60 to 90 nM measured after 48 hrs by DAPI staining based laser confocal microscopic analysis; format: cell-based
MGC-803 [29] = assay: Induction of apoptosis in human MGC803 cells after 48 hrs by Annexin V-FITC/propidium iodide staining based flow cytometry; format: functional, cell-based
MGC-803 [30] = assay: Induction of apoptosis in human MGC803 cells assessed as viable cells at 90 nM after 48 hrs by Annexin V-FITC/propidium iodide staining based flow cytometry (reference value: 94.9%); format: functional; settings: MGC-803, 48 h, read-out: Activity
MGC-803 [31] = assay: Induction of apoptosis in human MGC803 cells assessed as up regulation of cleaved PARP expression at 30 to 90 nM after 48 hrs by Western blot analysis; format: functional, cell-based
[32] = target: Cyclin-dependent kinase 1 (Homo sapiens) (UniProt P06493); assay: Effect on CDK1 phosphorylation at Tyr15 residues in human MGC803 cells at 30 to 90 nM by Western blot analysis; format: cell-based
Cyclin-dependent kinase 1 (Homo sapiens), sequence (P06493 whole entry, looked up): as the sequence (P06493 whole entry, looked up) above

MGC-803 [33] = assay: Induction of apoptosis in human MGC803 cells assessed as necrotic cells at 90 nM after 48 hrs by Annexin V-FITC/propidium iodide staining based flow cytometry (reference value: 0.3%); format: functional
MGC-803 [34] = assay: Cell cycle arrest in human MGC803 cells assessed as decrease in accumulation at S-phase at 30 to 90 nM measured after 48 hrs by propidium iodide staining based flow cytometry; format: functional
MGC-803 [35] = assay: Induction of apoptosis in human MGC803 cells assessed as up regulation of Bax expression at 30 to 90 nM after 48 hrs by Western blot analysis; format: functional, cell-based

Structure (SMILES): COc1ccc(CN(C(=O)Cn2cc(COc3ccc4c(C)cc(=O)oc4c3)nn2)c2cc(OC)c(OC)c(OC)c2)cc1
viability at 0.03 µM (MGC-803 [1]): 94.5%
Activity (MGC-803 [2]): 3.1%
Activity (MGC-803 [3]): Active
Activity (MGC-803 [4]): Dose-dependent effect
Activity (MGC-803 [5]): 0.3%
viability at 0.09 µM (MGC-803 [6]): 31.8%
Activity (MGC-803 [7]): Dose-dependent effect
Activity (MGC-803 [8]): inactive
IC50 (Tubulin): 2.16 µM
Activity (MGC-803 [9]): Dose-dependent effect
inhibition [10]: Active
Activity (MGC-803 [11]): 4.5%
Activity (MGC-803 [12]): 2.1%
IC50 (HepG2): 1.74 µM
Activity [13]: inactive
viability at 0.06 µM (MGC-803 [14]): 62.6%
Activity [15]: inactive
Activity (MGC-803 [16]): Active
Activity (MGC-803 [17]): 3.1%
Activity (MGC-803 [18]): Active
Activity (MGC-803 [19]): Dose-dependent effect
viability at 0.06 µM (MGC-803 [20]): 92.1%
IC50 (MGC-803 [21]): 0.13 µM
viability at 0.03 µM (MGC-803 [22]): 85.9%
IC50 (PC-3): 0.34 µM
Activity (MGC-803 [23]): Active
Activity (MGC-803 [24]): 36.8%
Activity (MGC-803 [25]): 0.2%
Activity (MGC-803 [26]): 25%
inhibition (MGC-803 [27]): Dose-dependent effect
viability at 0.12 µM (MGC-803 [28]): 16%
Activity (Tubulin (Homo sapiens)): Active
Activity (MGC-803 [29]): Dose-dependent effect
viability at 0.09 µM (MGC-803 [30]): 37.9%
Activity (MGC-803 [31]): Active
Activity [32]: inactive
Activity (MGC-803 [33]): 0.4%
Activity (MGC-803 [34]): Active
Activity (MGC-803 [35]): Active

Structure (SMILES): C#CCOc1ccc2c(C)cc(=O)oc2c1
IC50 (HepG2): > 80 µM
IC50 (MGC-803 [21]): > 80 µM
IC50 (PC-3): > 80 µM

Structure (SMILES): C#CCOc1ccc2ccc(=O)oc2c1
IC50 (HepG2): > 80 µM
IC50 (MGC-803 [21]): > 80 µM
IC50 (PC-3): > 80 µM

Structure (SMILES): COc1ccc(CN(C(=O)Cn2cc(CNS(=O)(=O)c3ccc(Br)cc3)nn2)c2cc(OC)c(OC)c(OC)c2)cc1
IC50 (HepG2): 7.37 µM
IC50 (MGC-803 [21]): 0.43 µM
IC50 (PC-3): 12.5 µM

Structure (SMILES): COc1ccc(CN(C(=O)Cn2cc(CN3c4ccccc4Sc4ccc(C(F)(F)F)cc43)nn2)c2cc(OC)c(OC)c(OC)c2)cc1
IC50 (HepG2): > 80 µM
IC50 (MGC-803 [21]): > 80 µM
IC50 (PC-3): > 80 µM

Now from value to compound:

IC50 (HepG2): 49.2 µM
IC50 (MGC-803 [21]): 0.48 µM
IC50 (PC-3): 28.4 µM
Structure (SMILES): COc1ccc(CN(C(=O)Cn2cc(CSc3nc4ccccc4s3)nn2)c2cc(OC)c(OC)c(OC)c2)cc1

IC50 (HepG2): 20.5 µM
IC50 (MGC-803 [21]): 12.5 µM
IC50 (PC-3): 45.3 µM
Structure (SMILES): COc1ccc(CN(C(=O)Cn2cc(COc3ccccc3)nn2)c2cc(OC)c(OC)c(OC)c2)cc1

IC50 (HepG2): 15.6 µM
IC50 (MGC-803 [21]): 1.85 µM
IC50 (PC-3): 5.05 µM
Structure (SMILES): COc1ccc(CN(C(=O)Cn2cc(CSc3nc4ccccc4o3)nn2)c2cc(OC)c(OC)c(OC)c2)cc1

IC50 (HepG2): 38.6 µM
IC50 (MGC-803 [21]): 5 µM
IC50 (PC-3): 16.5 µM
Structure (SMILES): COc1ccc(CN(C(=O)Cn2cc(CSc3nncs3)nn2)c2cc(OC)c(OC)c(OC)c2)cc1
